# According to ChEMBL document CHEMBL3785045, “Design, syntheses, and anti-tuberculosis activities of conjugates of piperazino-1,3-benzothiazin-4-ones (pBTZs) with 2,7-dimethylimidazo [1,2-a]pyridine-3-carboxylic acids and 7-phenylacetyl cephalosporins” (2016):
# How the values were obtained:
# [1] = tested on: Mycobacterium tuberculosis; experiment: Antimycobacterial activity against Mycobacterium tuberculosis H37Rv cultured in 7H12 medium after 4 days by microplate Alamar blue assay; type: functional; conditions: 96 h
# [2] = tested on: Mycobacterium tuberculosis; experiment: Antimycobacterial activity against Mycobacterium tuberculosis H37Rv cultured in GAS medium after 4 days by microplate Alamar blue assay; type: functional; conditions: 96 h
# Bacillus subtilis [3] = experiment: Antibacterial activity against Bacillus subtilis ATCC 6633; type: functional
# Staphylococcus aureus [4] = experiment: Antibacterial activity against Staphylococcus aureus SG511; type: functional
# Micrococcus luteus [5] = experiment: Antibacterial activity against Micrococcus luteus ATCC 10240; type: functional
# Staphylococcus aureus [6] = experiment: Antibacterial activity against Staphylococcus aureus SG511 assessed as zone of growth inhibition by agar diffusion assay; type: functional
# Micrococcus luteus [7] = experiment: Antibacterial activity against Micrococcus luteus ATCC 10240 assessed as zone of growth inhibition by agar diffusion assay; type: functional
# Mycolicibacterium vaccae [8] = experiment: Antibacterial activity against Mycobacterium vaccae IMET 10670 assessed as zone of growth inhibition by agar diffusion assay; type: functional
# Mycolicibacterium vaccae [9] = experiment: Antibacterial activity against Mycobacterium vaccae IMET 10670; type: functional
# Bacillus subtilis [10] = experiment: Antibacterial activity against Bacillus subtilis ATCC 6633 assessed as zone of growth inhibition by agar diffusion assay; type: functional
# Micrococcus luteus [11] = experiment: Antibacterial activity against Micrococcus luteus ATCC 10240 assessed as zone of growth inhibition at 1.66 ug/ml by agar diffusion assay; type: functional; conditions: read-out: IZ
# Mycolicibacterium vaccae [12] = experiment: Antibacterial activity against Mycobacterium vaccae IMET 10670 assessed as zone of growth inhibition at 1.66 ug/ml by agar diffusion assay; type: functional; conditions: read-out: IZ
# Bacillus subtilis [13] = experiment: microbe, parasite or virus in culture; conditions: ATCC 6633, read-out: IZ
# Description: Antibacterial activity against Bacillus subtilis ATCC 6633 assessed as zone of growth inhibition at 1.66 ug/ml by agar diffusion assay
# Staphylococcus aureus [14] = experiment: microbe, parasite or virus in culture; conditions: SG511, read-out: IZ
# Description: Antibacterial activity against Staphylococcus aureus SG511 assessed as zone of growth inhibition at 1.66 ug/ml by agar diffusion assay
Compound,MIC [1],MIC [2],MIC (Bacillus subtilis [3]),MIC (Staphylococcus aureus [4]),other results
CC(C)(C)OC(=O)N1CCN(c2nc(=O)c3cc(C(F)(F)F)cc([N+](=O)[O-])c3s2)CC1,0.28 µM,< 0.2 µM,,,
O=C(Cc1ccccc1)N[C@@H]1C(=O)N2C(C(=O)O)=C(CN3CCN(c4cc5c(cc4F)c(=O)c(C(=O)O)cn5C4CC4)CC3)CS[C@H]12,,,< 0.1 µM,0.2 µM,MIC (Micrococcus luteus [5]): 3.13 µM
Cc1ccn2c(C(=O)NCCCC(=O)OCc3ccccc3)c(C)nc2c1,5.85 µM,> 10 µM,,,
CC(C)(C)OC(=O)C1=C(COC(=O)OC(Cl)C(Cl)(Cl)Cl)CS[C@@H]2[C@H](NC(=O)Cc3ccccc3)C(=O)N12 (stereo partly specified),> 50 µM,22.2 µM,,,
Cc1ccn2c(C(=O)N3CCN(c4nc(=O)c5cc(C(F)(F)F)cc([N+](=O)[O-])c5s4)CC3)c(C)nc2c1,2.1 µM,1.43 µM,,,
Cc1ccn2c(C(=O)NCCC(=O)OCc3ccccc3)c(C)nc2c1,> 10 µM,> 10 µM,,,
O=C(Cc1ccccc1)N[C@@H]1C(=O)N2C(C(=O)O)=C(COC(=O)N3CCN(c4nc(=O)c5cc(C(F)(F)F)cc([N+](=O)[O-])c5s4)CC3)CS[C@H]12,4.63 µM,12 µM,0.8 µM,12.5 µM,inhibition zone (IZ) (Staphylococcus aureus [6]): 27 mm; inhibition zone (IZ) (Micrococcus luteus [7]): 24 mm; inhibition zone (IZ) (Mycolicibacterium vaccae [8]): 48 mm; MIC (Mycolicibacterium vaccae [9]): 0.2 µM; inhibition zone (IZ) (Bacillus subtilis [10]): 41 mm
O=C(Cc1ccccc1)N[C@@H]1C(=O)N2C(C(=O)O)=C(CN3CCN(c4nc(=O)c5cc(C(F)(F)F)cc([N+](=O)[O-])c5s4)CC3)CS[C@H]12,86.8 µM,48.9 µM,< 0.003 µM,0.4 µM,inhibition zone (IZ) (Staphylococcus aureus [6]): 32 mm; inhibition zone (IZ) (Micrococcus luteus [7]): 48 mm; inhibition zone (IZ) (Mycolicibacterium vaccae [8]): 33 mm; MIC (Micrococcus luteus [5]): 1.56 µM; MIC (Mycolicibacterium vaccae [9]): 12.5 µM; inhibition zone (IZ) (Bacillus subtilis [10]): 41 mm
COc1ccc(COC(=O)C2=C(CN3CCN(c4nc(=O)c5cc(C(F)(F)F)cc([N+](=O)[O-])c5s4)CC3)CS[C@@H]3[C@H](NC(=O)Cc4ccccc4)C(=O)N23)cc1,> 100 µM,> 100 µM,0.1 µM,1.56 µM,inhibition zone (IZ) (Staphylococcus aureus [6]): 37 mm; inhibition zone (IZ) (Micrococcus luteus [7]): 24 mm; inhibition zone (IZ) (Mycolicibacterium vaccae [8]): 24 mm; inhibition zone (IZ) (Bacillus subtilis [10]): 36 mm
Cc1ccn2c(C(=O)NCCCC(=O)N3CCN(c4nc(=O)c5cc(C(F)(F)F)cc([N+](=O)[O-])c5s4)CC3)c(C)nc2c1,> 10 µM,> 10 µM,,,
Cc1ccn2c(C(=O)NCCC(=O)N3CCN(c4nc(=O)c5cc(C(F)(F)F)cc([N+](=O)[O-])c5s4)CC3)c(C)nc2c1,> 10 µM,> 10 µM,,,
CC(C)(C)OC(=O)C1=C(COC(=O)N2CCN(c3nc(=O)c4cc(C(F)(F)F)cc([N+](=O)[O-])c4s3)CC2)CS[C@@H]2[C@H](NC(=O)Cc3ccccc3)C(=O)N12,1.49 µM,63.5 µM,,,
Cc1ccn2c(C(=O)NCc3ccc(C(=O)OCc4ccccc4)cc3)c(C)nc2c1,0.21 µM,4.1 µM,,,
Cc1ccn2c(C(=O)NCc3ccc(C(=O)N4CCN(c5nc(=O)c6cc(C(F)(F)F)cc([N+](=O)[O-])c6s5)CC4)cc3)c(C)nc2c1,> 10 µM,> 10 µM,,,
CC(C)(C)OC(=O)C1=C(CN2CCN(c3nc(=O)c4cc(C(F)(F)F)cc([N+](=O)[O-])c4s3)CC2)CS[C@@H]2[C@H](NC(=O)Cc3ccccc3)C(=O)N12,2.03 µM,1.51 µM,1.56 µM,12.5 µM,inhibition zone (IZ) (Staphylococcus aureus [6]): 23 mm; inhibition zone (IZ) (Micrococcus luteus [7]): 13 mm; inhibition zone (IZ) (Mycolicibacterium vaccae [8]): 29 mm; MIC (Mycolicibacterium vaccae [9]): 0.8 µM; inhibition zone (IZ) (Bacillus subtilis [10]): 27 mm
C[C@H]1COC2(CCN(c3nc(=O)c4cc(C(F)(F)F)cc([N+](=O)[O-])c4s3)CC2)O1 [BTZ-043],< 0.004 µM,< 0.004 µM,,> 200 µM,MIC (Micrococcus luteus [5]): > 200 µM; MIC (Mycolicibacterium vaccae [9]): 0.03 µM
O=C(O)c1cn(C2CC2)c2cc(N3CCNCC3)c(F)cc2c1=O [CIPROFLOXACIN],,,0.15 µM,,zone of inhibition at 1.66 µg/mL (Micrococcus luteus [11]): 0 mm; zone of inhibition at 1.66 µg/mL (Mycolicibacterium vaccae [12]): 17 mm; zone of inhibition at 1.66 µg/mL (Bacillus subtilis [13]): 20 mm; zone of inhibition at 1.66 µg/mL (Staphylococcus aureus [14]): 20 mm
CO[C@H]1/C=C/O[C@@]2(C)Oc3c(C)c(O)c4c(O)c(c(/C=N/N5CCN(C)CC5)c(O)c4c3C2=O)NC(=O)/C(C)=C\C=C\[C@H](C)[C@H](O)[C@@H](C)[C@@H](O)[C@@H](C)[C@H](OC(C)=O)[C@@H]1C [RIFAMPIN],0.05 µM,0.04 µM,,,
